Source: patent US12153056B2, “Compositions for and methods of diagnosing, prognosing, and treating diabetes” (Washington University, priority 2019, dated 2024)
“Also recorded” adds a separate entry of the source. Each block holds one substance with its values, some of them ahead of it. Bridge positions count the residues as written; N and C are the ends. Ends that are not written are not given here.

How the values were obtained:
[1] = test system: B:13-21-specific IIT-3 and B:12-20-specific 9B9 T cell hybridoma; experiment: T cell hybridoma responses to C3g7 APCs treated with or without chloroquine and pulsed with antigens; type: cell-based; conditions: C3g7 APCs with or without 100 μM chloroquine for 2 h
Method: (§1) In FIG. 5i, ConA-stimulated peritoneal macrophages were treated with 0.2 or 1 μM S961 for 1 h at 37° C. and were then cultured with the IIT-3 T cell hybridoma that recognizes the 13-21 peptide, in the presence of serially diluted insulin (19278; Sigma). In FIG. 6e, C3g7 cells were treated with chloroquine for 2 h at 37° C., washed, pulsed with the antigens, and cultured with T cell hybridomas. After incubation for 18 h, the culture supernatants were assayed for IL-2 production.

[2] = test system: 10E11 CD4 T cells; experiment: Two-photon motility assay of anti-HEL 10E11 T cells in mice given HEL; type: in vivo, NOD mice; conditions: inguinal lymph nodes, day 3 post transfer, indicated amounts of HEL
Method: (§2) CFSE- or CMTMR-labelled T cells were mixed 1:1 and were injected intravenously. For all the two-photon experiments, 2×10^6 T cells with either label were transferred. […] All the recipient mice were 3-4-week-old female mice unless otherwise mentioned. For experiments in FIG. 4f, FACS-sorted 8F10 T cells from pooled iLNs of 8-10 NOD or B16A mice were adoptively transferred intravenously into 4-6-week old NOD. Rag1÷ recipients (10^5 cells per mouse).
Lymph nodes were removed, attached to coverslips, placed in CO2-independent medium (Gibco) at room temperature and immediately imaged in a perfusion chamber to simulate blood flow (36.5° C. DMEM; 95% O2 and 5% CO2). Two-photon microscopy images were collected using a customized Leica SP8 Two-Photon Microscope (Leica Microsystems) equipped with a 25× and 0.95 numerical aperture water-immersion objective and a Mai Tai HP DeepSee Laser (Spectra-Physics) tuned to 840 nm. Fluorescence emission was guided directly to external hybrid photodetectors (Leica/Hamamatsu). […]
(§3) For cell tracking, two or three regions of one lymph node were randomly selected and cropped. […] We also calculated the meandering index and the motility coefficient for each track. […] The mean track velocities (μm/min) were calculated for individual tracks as previously described^11.

[3] = target: T1, insulin receptor (Mus musculus, UniProt P15208); experiment: In vivo blockade of insulin receptor by S961 infusion via osmotic pump, blood glucose; design: from tissue; host or cells: whole animal (NOD mice), in vivo; conditions: S961 20 nMol/week via osmotic pump, 3-week old NOD mice, versus PBS
Method: The S961 peptide ([…] (SEQ ID NO: 33)) was synthesized by LifeTein, with an intrachain disulphide bridge between Cys33 and Cys40 (underlined). S961 (20 nMol/week) or control PBS was filled into the Alzet osmotic pump (2001 model, Durect) and inserted subcutaneously in the back of anaesthetized mice through an incision between scapula. Blood glucose levels were monitored twice a day (Chemstrip 2GP; Roche); mice with a level above 250 mg/dl for two consecutive measurements were considered diabetic.

[4] = target: T1, insulin receptor; experiment: Two-photon imaging motility assay of transferred T cells in lymph nodes of mice infused with S961 or PBS; type: in vivo, NOD mice; design: from tissue; host or cells: whole animal (NOD mice), in vivo; conditions: S961 infusion versus PBS, day 3 post transfer
Method: as §2
Lymph nodes were removed, attached to coverslips, placed in CO2-independent medium (Gibco) at room temperature and immediately imaged in a perfusion chamber to simulate blood flow (36.5° C. DMEM; 95% O2 and 5% CO2). […] Fluorescence emission was guided directly to external hybrid photodetectors (Leica/Hamamatsu). […]
as §3
The S961 peptide ([…] (SEQ ID NO: 33)) was synthesized by LifeTein, with an intrachain disulphide bridge between Cys33 and Cys40 (underlined). […] Blood glucose levels were monitored twice a day (Chemstrip 2GP; Roche); mice with a level above 250 mg/dl for two consecutive measurements were considered diabetic.

[5] = target: T1, insulin receptor; experiment: Antigen presentation assay: ConA-activated peritoneal macrophages treated with S961, insulin pulse, IIT-3 T cell hybridoma; type: cell-based; design: endogenous in cells; host or cells: ConA-stimulated peritoneal macrophages; conditions: 0.2 or 1 μM S961 for 1 h before insulin; IIT-3 hybridoma, IL-2 production
Method: as §1

[6] = test system: I-A^g7-expressing APCs; experiment: Intravenous injection of Alexa Fluor 488-conjugated B:9-23, binding to splenic and thymic APCs by flow cytometry; type: in vivo, mice; conditions: 100 μg intravenously, one hour later
Method: FIG. 11a-FIG. 11c: Characterization of circulating B:9-23 and its localization into lymphoid organs. a, Unmodified synthetic B:9-23 (3 pmol) was spiked into 1 ml PBS, purified using C18 tips, lyophilized, and analyzed by nLC-MS/MS. […] An hour later, spleens and thymi were harvested, digested with liberase and DNase, and binding to splenic and thymic APCs was measured by flow cytometry. b, Representative FACS plots showing the binding of B:9-23 to splenic XCR1^+ and Sirpα^+ dendritic cell (DC) subsets and B cells (top). The bar graph summarizes cumulative results from individual mice (each point), pooled from three independent experiments. ns, not significant; **P<0.05; ***P<0.01; ****P<0.005, two-tailed unpaired Student's t-test. c, Representative FACS plots showing the binding of B:9-23 to thymic XCR1^+ and Sirpα^+ DC subsets and to CD45^− cells expressing MHCII. Data are mean±S.D from five individual mice per strain from two independent experiments.

T1 sequence (P15208 28-748 limits assumed): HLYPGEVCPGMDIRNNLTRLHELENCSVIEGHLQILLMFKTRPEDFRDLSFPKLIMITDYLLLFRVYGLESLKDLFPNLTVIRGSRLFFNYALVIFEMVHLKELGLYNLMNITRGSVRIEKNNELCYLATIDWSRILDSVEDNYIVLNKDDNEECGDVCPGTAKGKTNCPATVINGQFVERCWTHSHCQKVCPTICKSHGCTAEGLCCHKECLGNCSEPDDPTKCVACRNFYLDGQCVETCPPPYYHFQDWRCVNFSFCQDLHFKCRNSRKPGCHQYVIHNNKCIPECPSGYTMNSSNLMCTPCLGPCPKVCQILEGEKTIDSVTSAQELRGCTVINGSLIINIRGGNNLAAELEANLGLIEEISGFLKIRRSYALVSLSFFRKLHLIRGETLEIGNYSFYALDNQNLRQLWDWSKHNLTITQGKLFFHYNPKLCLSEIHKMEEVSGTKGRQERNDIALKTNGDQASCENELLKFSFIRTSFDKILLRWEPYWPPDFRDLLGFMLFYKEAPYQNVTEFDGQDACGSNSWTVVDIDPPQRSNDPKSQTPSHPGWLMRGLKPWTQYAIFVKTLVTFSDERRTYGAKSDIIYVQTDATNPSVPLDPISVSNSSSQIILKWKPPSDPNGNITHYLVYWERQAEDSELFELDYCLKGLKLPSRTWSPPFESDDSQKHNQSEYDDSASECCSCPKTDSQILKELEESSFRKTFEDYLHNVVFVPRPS
T1 sequence (P15208 753-1372 partner limits assumed): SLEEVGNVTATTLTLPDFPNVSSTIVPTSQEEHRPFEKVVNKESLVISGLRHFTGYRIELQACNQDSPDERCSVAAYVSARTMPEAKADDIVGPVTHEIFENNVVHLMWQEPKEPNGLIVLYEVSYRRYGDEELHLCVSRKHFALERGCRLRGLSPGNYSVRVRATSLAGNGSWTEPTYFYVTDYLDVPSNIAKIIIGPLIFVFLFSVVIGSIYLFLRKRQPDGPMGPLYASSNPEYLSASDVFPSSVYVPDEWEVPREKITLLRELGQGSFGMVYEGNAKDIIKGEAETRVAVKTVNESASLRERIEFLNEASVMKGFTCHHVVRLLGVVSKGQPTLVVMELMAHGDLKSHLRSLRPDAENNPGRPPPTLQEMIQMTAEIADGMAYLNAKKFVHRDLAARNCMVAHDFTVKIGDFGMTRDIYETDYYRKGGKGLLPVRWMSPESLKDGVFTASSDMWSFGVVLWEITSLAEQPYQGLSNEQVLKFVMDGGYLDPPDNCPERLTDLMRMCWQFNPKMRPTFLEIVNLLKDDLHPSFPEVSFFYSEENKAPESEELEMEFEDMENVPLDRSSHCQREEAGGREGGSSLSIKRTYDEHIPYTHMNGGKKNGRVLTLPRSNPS

Substance: insulin: insulin (19278; Sigma) used as antigen
need for internal processing for T cell reactivity [1]: require internal processing

Substance: HEL: hen egg lysozyme, control antigen recognized by 10E11 CD4 T cells
10E11 T cell velocities [2]: progressive reduction of the 10E11 T cell velocities as the antigen amount increases

Substance: B:9-23: insulin B-chain peptide, segment 9-23 (SHLVEALYLVCGERG)
need for internal processing for T cell reactivity [1]: not to B:9-23 or B:1-30 require internal processing

ability of ConA-activated macrophages to present insulin [5]: impaired
Substance: S961: insulin receptor antagonist peptide GSLDESFYDWFERQLGGGSGGSSLEEEWAQIQCEVWGRGCPSY (SEQ ID NO: 33), synthesized by LifeTein (disulfide 33-40; listed as Mus musculus)
blood glucose levels [3]: sustained increase in blood glucose levels | motility arrest of 8F10 T cells [4]: remained at a comparable level; also recorded: comparable level of motility arrest | reduction in mean velocity (motility) of transferred 4F7 T cells [4]: the magnitude of the reduction was significantly smaller than with PBS; also recorded: partial reduction of the 4F7 T cell motility

display by APCs in thymus [6]: not in thymus
Substance: fluorochrome-labelled B:9-23: Alexa Fluor 488-conjugated B:9-23 peptide (SHLVEALYLVCGERG; also: Alexa Fluor 488-conjugated (position not given here))
display by APCs in spleen [6]: rapidly displayed by I-A^g7-expressing APCs in spleen
